This is an account of results in patent US20260199362A1, “VITAMIN B2 FOR USE IN IMPROVING GUT HEALTH” (DSM IP Assets B.V., priority 2022, published 2026).

In this assay the test system is Lactobacillus rhamnosus GG (Lactobacillus rhamnosus DSM 32550). The assay can be described thus: Short-term batch-fermentation colon model (M-SHIME) with qPCR of Lactobacillus rhamnosus GG level. The assay is classed as cell-based. The procedure:
A short-term batch-fermentation experiment was carried out by ProDigest, consisting of a colonic incubation of a representative dose of a selected vitamin with a representative bacterial inoculum under simulated conditions for the proximal large intestine. In the current experiment, the bacterial inocula were derived from fresh fecal samples of six different healthy adult donors. […]
In this study, the Lactobacillus rhamnosus GG equivalent Lactobacillus rhamnosus DSM 32550 (Biocare Copenhagen) was added to the colon model containing the donor samples, alone or in combination with vitamin B2 (see Table 1). After 48 h of incubation, the abundance of the added strain was analyzed using primers that are specific for Lactobacillus rhamnosus GG and its equivalent Lactobacillus rhamnosus DSM 32550. […]
qPCR was performed on putative phage tail protein gene (NCBI reference NC_013198) to monitor the level of the supplemented probiotic Lactobacillus rhamnosus GG strain within the gut microbiome, as described previously (Brandt, Alatossava (2003)-Specific identification of certain probiotic Lactobacillus rhamnosus strains with PCR primers based on phage-related sequences). Samples were analyzed from the mucus environment following 48 h of incubation. […]

`Cc1cc2nc3c(=O)[nH]c(=O)nc-3n(C[C@H](O)[C@H](O)[C@H](O)CO)c2cc1C` [vitamin B2, riboflavin]: under “vitamin B2 0.01667 g/L co-supplemented with L. rhamnosus GG 1*10^9 CFU, mucus environment, 48 h colonic incubation, fecal inocula of six healthy human donors, average, qPCR”, the “copies of the Lactobacillus rhamnosus GG specific putative phage tail protein gene relative to control (Lactobacillus rhamnosus GG alone)” value was “around three”. For the same compound, the “levels of Lactobacillus rhamnosus GG in the colon model, as compared to the respective control” value (vitamin B2 0.01667 g/L co-supplemented with L. rhamnosus GG, 48 h, six human donors, paired t-test, p<0.05) is listed as “significantly increased”.
